Patent publication US10750742B2, “Pesticidally active pyrazole derivatives” (SYNGENTA PARTICIPATIONS AG, priority 2015, dated 2020)
Like-named read-outs stand apart in the source and are kept apart here.

Assays:
Type in all cases: in vivo
Tetranychus urticae = Tetranychus urticae (two-spotted spider mite), bean leaf disc test; conditions: foliar, 192 h, read-out: control (mortality on mixed population, mobile stages)
Experimental: Tetranychus urticae (Two-Spotted Spider Mite):
Bean leaf discs on agar in 24-well microtiter plates were sprayed with aqueous test solutions prepared from 10′000 ppm DMSO stock solutions. After drying the leaf discs were infested with a mite population of mixed ages. The samples were assessed for mortality on mixed population (mobile stages) 8 days after infestation.

Spodoptera littoralis = Spodoptera littoralis (Egyptian cotton leaf worm), cotton leaf disc spray test; conditions: foliar, 72 h, read-out: control (at least one of mortality, anti-feedant effect, growth inhibition); for percent control (mortality, anti-feedant effect or growth inhibition) at 200 ppm: application rate 200 ppm, L1 larvae, 3 days after infestation
Experimental: Spodoptera littoralis (Egyptian Cotton Leaf Worm)
Cotton leaf discs were placed on agar in 24-well microtiter plates and sprayed with aqueous test solutions prepared from 10′000 ppm DMSO stock solutions. After drying the leaf discs were infested with five L1 larvae. The samples were assessed for mortality, anti-feedant effect, and growth inhibition in comparison to untreated samples 3 days after infestation. Control of Spodoptera littoralis by a test sample is when at least one of mortality, anti-feedant effect, and growth inhibition is higher than the untreated sample.

Diabrotica balteata = Diabrotica balteata (corn root worm), maize sprout test; conditions: 96 h, read-out: control (mortality and growth inhibition)
Experimental: Diabrotica balteata, (Corn Root Worm)
Maize sprouts, placed on an agar layer in 24-well microtiter plates were treated with aqueous test solutions prepared from 10′000 ppm DMSO stock solutions by spraying. After drying, the plates were infested with L2 larvae (6 to 10 per well). The samples were assessed for mortality and growth inhibition in comparison to untreated samples 4 days after infestation.

Thrips tabaci = Thrips tabaci (onion thrips), sunflower leaf disc test; conditions: foliar, 144 h, read-out: control (mortality)
Experimental: Thrips tabaci (Onion Thrips):
Sunflower leaf discs were placed on agar in 24-well microtiter plates and sprayed with aqueous test solutions prepared from 10′000 ppm DMSO stock solutions. After drying the leaf discs were infested with a thrips population of mixed ages. The samples were assessed for mortality 6 days after infestation.

Plutella xylostella = Plutella xylostella (diamond back moth), artificial diet test; conditions: 120 h, read-out: control (mortality and growth inhibition)
Experimental: Plutella xylostella (Diamond Back Moth):
24-well microtiter plates with artificial diet were treated with aqueous test solutions prepared from 10′000 ppm DMSO stock solutions by pipetting. After drying, the plates were infested with L2 larvae (10 to 15 per well). The samples were assessed for mortality and growth inhibition in comparison to untreated samples 5 days after infestation.

Myzus persicae = Myzus persicae (green peach aphid), sucrose solution / Parafilm test; conditions: 120 h
From the text: Myzus persicae (Green Peach Aphid):
Test compounds were applied by pipette into 24 well plates and mixed with Sucrose solution. Application rate: 12.5 ppm. The plates were closed with a stretched parafilm. A plastic stencil with 24 holes is placed onto the plate and infested pea seedlings were placed directly on the Parafilm. The infested plate is closed with a gel blotting paper and another plastic stencil and then turned upside down. 5 days after infestation the samples were checked on mortality.

Euschistus heros = Euschistus heros (neotropical brown stink bug), soybean leaf test; conditions: 120 h, read-out: effect in at least one of the two categories (mortality or growth inhibition); for percent effect (mortality or growth inhibition) at 200 ppm: application rate 200 ppm, N2 nymphs, 5 days after infestation
Experimental: Euschistus heros (Neotropical Brown Stink Bug):
Soybean leaves on agar in 24-well microtiter plates were sprayed with aqueous test solutions prepared from 10′000 ppm DMSO stock solutions. After drying the leaves were infested with N2 nymphs. The samples were assessed for mortality and growth inhibition in comparison to untreated samples 5 days after infestation.

[1] = application rate 200 ppm, 8 days after infestation
[2] = application rate 200 ppm, L2 larvae, 4 days after infestation
[3] = application rate 200 ppm, mixed ages, 6 days after infestation
[4] = application rate 200 ppm, L2 larvae, 5 days after infestation
[5] = test rate of 12 ppm, sucrose solution, 5 days after infestation, read-out: mortality

Cn1nc(OC(F)(F)C(F)C(F)(F)F)c(C(F)(F)F)c1-n1cc(-c2ccc(Cl)c(C(=O)N(/C(F)=C(\F)C(F)(F)F)C3(C#N)CC3)c2)cn1 (stereo not drawn) [compound 7]
≥ 80%: mortality at 200 ppm (Tetranychus urticae; [1]) | percent control (mortality, anti-feedant effect or growth inhibition) at 200 ppm (Spodoptera littoralis) | mortality at 200 ppm (Diabrotica balteata; [2]) | mortality at 200 ppm (Thrips tabaci; [3]) | mortality at 200 ppm (Plutella xylostella; [4])

CCNC(=O)c1cc(-c2cnn(-c3c(C(F)(F)F)c(OC(F)(F)C(F)C(F)(F)F)nn3C)c2)ccc1Cl (stereo not drawn) [compound 9]
≥ 80%: mortality at 200 ppm (Tetranychus urticae; [1]) | percent control (mortality, anti-feedant effect or growth inhibition) at 200 ppm (Spodoptera littoralis) | mortality at 200 ppm (Diabrotica balteata; [2]) | mortality at 12 ppm (Myzus persicae; [5]) | mortality at 200 ppm (Thrips tabaci; [3]) | percent effect (mortality or growth inhibition) at 200 ppm (Euschistus heros) | mortality at 200 ppm (Plutella xylostella; [4])

Cn1nc(OC(F)(F)C(F)C(F)(F)F)c(C(F)(F)F)c1-n1cc(-c2ccc(Cl)c(C(=O)NCC#N)c2)cn1 (stereo not drawn) [compound 10]
≥ 80%: mortality at 200 ppm (Tetranychus urticae; [1]) | percent control (mortality, anti-feedant effect or growth inhibition) at 200 ppm (Spodoptera littoralis) | mortality at 200 ppm (Diabrotica balteata; [2]) | mortality at 12 ppm (Myzus persicae; [5]) | mortality at 200 ppm (Thrips tabaci; [3]) | mortality at 200 ppm (Plutella xylostella; [4])

Cn1nc(OC(F)(F)C(F)=C(C(F)(F)F)C(F)(F)F)c(C(F)(F)F)c1-n1cc(-c2ccc(Cl)c(C(=O)NC3(C#N)CC3)c2)cn1 [compound 14]
≥ 80%: mortality at 200 ppm (Tetranychus urticae; [1])

Cn1nc(OS(=O)(=O)C(F)(F)F)c(C(F)(F)F)c1-n1cc(-c2ccc(Cl)c(C(=O)NC3(C#N)CC3)c2)cn1 [compound 16]
≥ 80%: mortality at 200 ppm (Tetranychus urticae; [1]) | percent control (mortality, anti-feedant effect or growth inhibition) at 200 ppm (Spodoptera littoralis) | mortality at 200 ppm (Diabrotica balteata; [2]) | mortality at 200 ppm (Thrips tabaci; [3]) | percent effect (mortality or growth inhibition) at 200 ppm (Euschistus heros) | mortality at 200 ppm (Plutella xylostella; [4])

Cn1nc(OCCCCC(F)=C(F)F)c(C(F)(F)F)c1-n1cc(-c2ccc(Cl)c(C(=O)NC3(C#N)CC3)c2)cn1 [compound 21]
≥ 80%: mortality at 200 ppm (Tetranychus urticae; [1]) | percent effect (mortality or growth inhibition) at 200 ppm (Euschistus heros)

Cn1nc(OCC(F)(F)C(F)(F)C(F)(F)C(F)(F)C(F)(F)C(F)(F)C(F)(F)F)c(C(F)(F)F)c1-n1cc(-c2ccc(Cl)c(C(=O)NC3(C#N)CC3)c2)cn1 [compound 22]
≥ 80%: mortality at 200 ppm (Spodoptera littoralis) | mortality at 200 ppm (Diabrotica balteata) | mortality at 200 ppm (Plutella xylostella)

Cn1nc(OCCOC(F)(F)F)c(C(F)(F)F)c1-n1cc(-c2ccc(Cl)c(C(=O)NC3(C#N)CC3)c2)cn1 [compound 28]
≥ 80%: mortality at 12 ppm (Myzus persicae; [5]) | percent effect (mortality or growth inhibition) at 200 ppm (Euschistus heros)

Cn1nc(OCCCCC(F)=C(F)F)c(C(F)(F)F)c1-n1cc(-c2ccc(Cl)c(C(=O)NC3CC3)c2)cn1 [compound 29]
≥ 80%: mortality at 200 ppm (Diabrotica balteata; [2])

Cn1nc(OCC(F)(F)C(F)(F)C(F)(F)C(F)(F)C(F)(F)C(F)(F)C(F)(F)F)c(C(F)(F)F)c1-n1cc(-c2ccc(Cl)c(C(=O)NC3CC3)c2)cn1 [compound 31]
≥ 80%: mortality at 200 ppm (Plutella xylostella)

Cn1nc(OS(=O)(=O)C(F)(F)C(F)(F)C(F)(F)C(F)(F)F)c(C(F)(F)F)c1-n1cc(-c2ccc(Cl)c(C(=O)NC3(C#N)CC3)c2)cn1 [compound 36]
≥ 80%: mortality at 200 ppm (Diabrotica balteata) | mortality at 12 ppm (Myzus persicae) | mortality at 200 ppm (Thrips tabaci) | percent control (mortality or growth inhibition) at 200 ppm (Euschistus heros) | mortality at 200 ppm (Plutella xylostella)

Cn1nc(OS(=O)(=O)C(F)(F)C(F)(F)C(F)(F)C(F)(F)F)c(C(F)(F)F)c1-n1cc(-c2ccc(Cl)c(C(=O)NC3CC3)c2)cn1 [compound 37]
≥ 80%: mortality at 200 ppm (Diabrotica balteata) | mortality at 12 ppm (Myzus persicae) | mortality at 200 ppm (Thrips tabaci) | percent control (mortality or growth inhibition) at 200 ppm (Euschistus heros) | mortality at 200 ppm (Plutella xylostella)

Cn1nc(OC(F)(F)C(F)(F)C(F)(F)C(F)(F)C(F)(F)C(F)(F)F)c(C(F)(F)F)c1-n1cc(-c2ccc(Cl)c(C(=O)NC3(C#N)CC3)c2)cn1 [compound 38]
≥ 80%: mortality at 200 ppm (Spodoptera littoralis) | mortality at 200 ppm (Diabrotica balteata) | mortality at 200 ppm (Thrips tabaci) | percent control (mortality or growth inhibition) at 200 ppm (Euschistus heros) | mortality at 200 ppm (Plutella xylostella)

Cn1nc(OC(F)(F)C(F)(F)C(F)(F)C(F)(F)C(F)(F)C(F)(F)F)c(C(F)(F)F)c1-n1cc(-c2ccc(Cl)c(C(=O)NC3CC3)c2)cn1 [compound 39]
≥ 80%: mortality at 200 ppm (Tetranychus urticae) | mortality at 200 ppm (Spodoptera littoralis) | mortality at 200 ppm (Diabrotica balteata) | mortality at 200 ppm (Thrips tabaci) | percent control (mortality or growth inhibition) at 200 ppm (Euschistus heros) | mortality at 200 ppm (Plutella xylostella)

Cn1nc(O/C(=C(/F)C(F)(F)F)C(F)(F)F)c(C(F)(F)F)c1-n1cc(-c2ccc(Cl)c(C(=O)NC3(C#N)CC3)c2)cn1 [compound 42]
≥ 80%: percent control (mortality, anti-feedant effect or growth inhibition) at 200 ppm (Spodoptera littoralis) | mortality at 200 ppm (Diabrotica balteata; [2]) | percent effect (mortality or growth inhibition) at 200 ppm (Euschistus heros) | mortality at 200 ppm (Plutella xylostella; [4])

Cn1nc(OCCC(F)=C(F)F)c(C(F)(F)F)c1-n1cc(-c2ccc(Cl)c(C(=O)NC3(C#N)CC3)c2)cn1 [compound 46]
≥ 80%: percent control (mortality, anti-feedant effect or growth inhibition) at 200 ppm (Spodoptera littoralis) | mortality at 200 ppm (Thrips tabaci; [3]) | mortality at 200 ppm (Plutella xylostella; [4])

Cn1nc(O/C(F)=C/C(F)(F)F)c(C(F)(F)F)c1-n1cc(-c2ccc(Cl)c(C(=O)NC3(C#N)CC3)c2)cn1 [compound 48]
≥ 80%: mortality at 200 ppm (Tetranychus urticae; [1]) | percent control (mortality, anti-feedant effect or growth inhibition) at 200 ppm (Spodoptera littoralis) | mortality at 200 ppm (Diabrotica balteata; [2]) | mortality at 12 ppm (Myzus persicae; [5]) | mortality at 200 ppm (Thrips tabaci; [3]) | percent effect (mortality or growth inhibition) at 200 ppm (Euschistus heros) | mortality at 200 ppm (Plutella xylostella; [4])

Cn1nc(O/C(=C\F)C(F)(F)F)c(C(F)(F)F)c1-n1cc(-c2ccc(Cl)c(C(=O)NC3(C#N)CC3)c2)cn1 [compound 49]
≥ 80%: mortality at 200 ppm (Tetranychus urticae; [1]) | percent control (mortality, anti-feedant effect or growth inhibition) at 200 ppm (Spodoptera littoralis) | mortality at 12 ppm (Myzus persicae; [5]) | percent effect (mortality or growth inhibition) at 200 ppm (Euschistus heros)

Cn1nc(OC(F)(F)C(F)(C(F)=C(F)C(F)(F)F)C(F)(F)F)c(C(F)(F)F)c1-n1cc(-c2ccc(Cl)c(C(=O)NC3CC3)c2)cn1 (stereo not drawn) [compound 51]
≥ 80%: mortality at 200 ppm (Tetranychus urticae; [1]) | percent control (mortality, anti-feedant effect or growth inhibition) at 200 ppm (Spodoptera littoralis) | mortality at 200 ppm (Diabrotica balteata; [2]) | mortality at 12 ppm (Myzus persicae; [5]) | mortality at 200 ppm (Thrips tabaci; [3]) | percent effect (mortality or growth inhibition) at 200 ppm (Euschistus heros) | mortality at 200 ppm (Plutella xylostella; [4])

Cn1nc(OC(F)=C(F)C(F)(F)F)c(C(F)(F)F)c1-n1cc(-c2ccc(Cl)c(C(=O)NC3(C#N)CC3)c2)cn1 [compound 52]
≥ 80%: mortality at 200 ppm (Tetranychus urticae; [1]) | mortality at 12 ppm (Myzus persicae; [5]) | mortality at 200 ppm (Thrips tabaci; [3]) | percent effect (mortality or growth inhibition) at 200 ppm (Euschistus heros)

Cn1nc(SCCC(F)(F)C(F)(F)C(F)(F)C(F)(F)C(F)(F)C(F)(F)F)c(Br)c1-n1cc(-c2ccc(Cl)c(C(=O)NC3CC3)c2)cn1 [compound 54]
≥ 80%: mortality at 200 ppm (Spodoptera littoralis) | mortality at 200 ppm (Plutella xylostella)

COc1nn(C)c(-n2cc(-c3ccc(Cl)c(C(=O)N(C)C4(C#N)CC4)c3)cn2)c1C(F)(F)F [compound 56]
≥ 80%: mortality at 200 ppm (Diabrotica balteata; [2]) | mortality at 12 ppm (Myzus persicae; [5]) | mortality at 200 ppm (Plutella xylostella; [4])

Cn1nc(SCC(F)(F)C(F)F)c(Br)c1-n1cc(-c2ccc(Cl)c(C(=O)NC3CC3)c2)cn1 [compound 57]
≥ 80%: percent control (mortality, anti-feedant effect or growth inhibition) at 200 ppm (Spodoptera littoralis)

Cn1nc(OC(Cl)(Cl)C(Cl)=C(Cl)Cl)c(C(F)(F)F)c1-n1cc(-c2ccc(Cl)c(C(=O)NC3CC3)c2)cn1 [compound 67]
≥ 80%: mortality at 200 ppm (Diabrotica balteata; [2]) | mortality at 200 ppm (Thrips tabaci; [3])

Cn1nc(OC(F)(F)C(F)C(F)(F)F)c(C(F)(F)F)c1-n1cc(-c2cccc(C(=O)NC3CC3)c2F)cn1 (stereo not drawn) [compound 68]
≥ 80%: mortality at 200 ppm (Tetranychus urticae; [1]) | percent control (mortality, anti-feedant effect or growth inhibition) at 200 ppm (Spodoptera littoralis) | mortality at 200 ppm (Diabrotica balteata; [2]) | mortality at 200 ppm (Thrips tabaci; [3])
